Results: US8597660B2, “Therapeutic approach to neurodegenerative disorders using a TFP5-peptide” (The United States of America, as represented by the …, priority 2010, dated 2013)
Entries after “also recorded” stand apart in the source; their conditions may differ.

Tested on: cleaved caspase-3
Assay: Cleaved caspase-3 Western blot in Aβ-treated cortical neurons
Type: cell-based, rat
Details: Aβ 6 h; P5 infection or roscovitine
Protocol: Western blot analysis was performed as previously described (Zheng et al., Eur J Biochem 269(18), 4427-4434, 2002). In brief, an equal amount of total protein (20 μg/lane) was resolved on a 4-20% SDS polyacrylamide gel and blotted onto a polyvinylidene difluoride membrane. This membrane was incubated in blocking buffer containing 20 mM Tris-HCl (pH 7.4), 150 mM NaCl, and 0.1% (vol/vol) Tween 20 (TTBS) plus 5% dry milk (w/v) for 1 hour at room temperature followed by incubation overnight at 4° C. in primary antibodies (see antibodies). The membranes were then washed four times in TTBS (5 minutes/each) followed by incubation in secondary antibody (goat-antimouse or goat anti-rabbit IgG (H+L)-horseradish peroxidase (HRP) conjugate at a dilution of 1:3000) for 1 hour at room temperature. Western blots were analyzed using the Amersham Enhanced Chemiluminescence (ECL) kit following the manufacturer's instructions (GE Healthcare, Piscataway, N.J.).
To determine whether P5 inhibited neuronal apoptosis induced by Aβ, primary cortical neurons (5 days in culture (DIC)) were transfected with P5-GFP using Lipofectamine 2000. After 24 hours, cells were exposed to Aβ for 6 hours. The neurons were fixed and subjected to TUNEL staining, while P5 was visualized by (green fluorescent protein) GFP. […] The data are quantified in FIG. 5B. […] The data are quantified in FIG. 5D.

P5: 24 residue peptide derived from Cdk5 activator P35 (K254-A277 of SEQ ID NO: 16); Cdk5 inhibitory peptide (KEAFWDRCLSVINLMSSKMLQINA; listed as Homo sapiens)
Cleaved caspase-3 expression: marked reduction in cleaved caspase 3 expression; also recorded: reduced to control EV levels; also recorded: significantly rescued cortical neurons from apoptosis
